What was measured:
[1] = system: adults with nonalcoholic fatty liver disease (NAFLD)/presumed nonalcoholic steatohepatitis (NASH); assay: 52-week Phase 3 trial (Example 1): thyroid hormone levels; format: in vivo, human; conditions: for FT3 (not on thyroxine) LSM Difference / FT3 (thyroxine-treated) LSM Difference / FT3/rT3 (not on thyroxine) LSM Difference / FT3/rT3 (thyroxine-treated) LSM Difference / FT3/rT3 LSM Difference / FT3 LSM Difference / FT4 (not on thyroxine) LSM Difference in % CFB / FT4 (not on thyroxine) LSM Difference in CFB / FT4 (thyroxine-treated) LSM Difference in % CFB / FT4 (thyroxine-treated) LSM Difference in CFB / FT4 LSM Difference in % CFB / FT4 LSM Difference in CFB / TBG (not on thyroxine) LSM Difference / TBG (thyroxine-treated) LSM Difference / TBG LSM Difference / TSH (not on thyroxine) LSM Difference / TSH (thyroxine-treated) LSM Difference / TSH LSM Difference / rT3 (not on thyroxine) LSM Difference / rT3 (thyroxine-treated) LSM Difference / rT3 LSM Difference / FT3 (not on thyroxine) LSM CFB / FT3 (thyroxine-treated) LSM CFB / FT3/rT3 (not on thyroxine) LSM CFB / FT3/rT3 (thyroxine-treated) LSM CFB / FT3/rT3 LSM CFB / FT3 LSM CFB / FT4 (not on thyroxine) LSM % CFB / FT4 (not on thyroxine) LSM CFB / FT4 (thyroxine-treated) LSM % CFB / FT4 (thyroxine-treated) LSM CFB / FT4 LSM % CFB / FT4 LSM CFB / TBG (not on thyroxine) LSM CFB / TBG (thyroxine-treated) LSM CFB / TBG LSM CFB / TSH (not on thyroxine) LSM CFB / TSH (thyroxine-treated) LSM CFB / TSH LSM CFB / rT3 (not on thyroxine) LSM CFB / rT3 (thyroxine-treated) LSM CFB / rT3 LSM CFB: Week 52
Protocol: A 52-week randomized, double-blind, placebo-controlled Phase 3 trial was conducted to evaluate the safety and effect of resmetirom, an oral, once-daily, liver-targeted thyroid hormone receptor-β selective agonist, on multiple biomarkers in adults with nonalcoholic fatty liver disease (NAFLD)/presumed nonalcoholic steatohepatitis (NASH). Patients were randomized to three double-blind arms (100 mg resmetirom, 80 mg resmetirom, or placebo) or one open-label arm (100 mg resmetirom). Common concomitant medications across the 4 arms were antidiabetes drugs (such as glucagon-like peptide-1 receptor agonists (GLP-1 RAs), metformin, pioglitazone, and sodium/glucose cotransporter-2 inhibitors (SGLT2i)) and drugs to manage dyslipidemia (statins).
Sex hormone levels after 52 weeks of resmetirom treatment are shown in Table A. Thyroid hormone levels after 52 weeks of resmetirom treatment are reported in Table B.

[2] = system: patients with Nonalcoholic Steatohepatitis; assay: Phase 3 trial in Nonalcoholic Steatohepatitis (Example 2): NASH resolution and fibrosis improvement on biopsy; format: in vivo, human
Protocol: A randomized, double-blind, placebo-controlled Phase 3 trial was conducted. Patients were randomly assigned to receive resmetirom 80 mg, resmetirom 100 mg, or placebo administered orally once daily. Screening biopsy results were used as baseline for histologic variables and a second biopsy was performed at Week 52.

[3] = Resmetirom 80 mg DB vs Placebo DB
[4] = Resmetirom 100 mg DB vs Placebo DB

CC(C)c1cc(Oc2c(Cl)cc(-n3nc(C#N)c(=O)[nH]c3=O)cc2Cl)n[nH]c1=O [Resmetirom, 2-[3,5-dichloro-4-[(6-oxo-5-propan-2-yl-1H-pyridazin-3-yl)oxy]phenyl]-3,5-dioxo-1,2,4-triazine-6-carbonitrile]
FT3 (not on thyroxine) LSM Difference [1, 3]: 0.1 ng/L
FT3 (thyroxine-treated) LSM Difference [1, 3]: 0.0 ng/L
FT3/rT3 (not on thyroxine) LSM Difference [1, 3]: 0.05
FT3/rT3 (thyroxine-treated) LSM Difference [1, 3]: 0.03
FT3/rT3 LSM Difference [1, 3]: 0.05
FT3 LSM Difference [1, 3]: 0.1 ng/L
FT4 (not on thyroxine) LSM Difference in % CFB [1, 3]: −11.0%
FT4 (not on thyroxine) LSM Difference in CFB [1, 3]: -0.1 ng/dL
FT4 (thyroxine-treated) LSM Difference in % CFB [1, 3]: −10.2%
FT4 (thyroxine-treated) LSM Difference in CFB [1, 3]: -0.1 ng/dL
FT4 LSM Difference in % CFB [1, 3]: −10.8%
FT4 LSM Difference in CFB [1, 3]: -0.1 ng/dL
TBG (not on thyroxine) LSM Difference [1, 3]: -1.2 mg/L
TBG (thyroxine-treated) LSM Difference [1, 3]: -0.6 mg/L
TBG LSM Difference [1, 3]: -1.1 mg/L
TSH (not on thyroxine) LSM Difference [1, 3]: 0.0 mIU/L
TSH (thyroxine-treated) LSM Difference [1, 3]: −0.3 mIU/L
TSH LSM Difference [1, 3]: −0.0 mIU/L
rT3 (not on thyroxine) LSM Difference [1, 3]: -3.3 ng/dL
rT3 (thyroxine-treated) LSM Difference [1, 3]: -4.4 ng/dL
rT3 LSM Difference [1, 3]: -3.4 ng/dL
FT3 (not on thyroxine) LSM CFB ([1]; Resmetirom 80 mg DB): -0.1 ng/L
FT3 (thyroxine-treated) LSM CFB ([1]; Resmetirom 80 mg DB): 0.0 ng/L
FT3/rT3 (not on thyroxine) LSM CFB ([1]; Resmetirom 80 mg DB): 0.04
FT3/rT3 (thyroxine-treated) LSM CFB ([1]; Resmetirom 80 mg DB): 0.03
FT3/rT3 LSM CFB ([1]; Resmetirom 80 mg DB): 0.04
FT3 LSM CFB ([1]; Resmetirom 80 mg DB): -0.0 ng/L
FT4 (not on thyroxine) LSM % CFB ([1]; Resmetirom 80 mg DB): −9.9%
FT4 (not on thyroxine) LSM CFB ([1]; Resmetirom 80 mg DB): -0.1 ng/dL
FT4 (thyroxine-treated) LSM % CFB ([1]; Resmetirom 80 mg DB): −6.4%
FT4 (thyroxine-treated) LSM CFB ([1]; Resmetirom 80 mg DB): -0.1 ng/dL
FT4 LSM % CFB ([1]; Resmetirom 80 mg DB): −9.6%
FT4 LSM CFB ([1]; Resmetirom 80 mg DB): -0.1 ng/dL
TBG (not on thyroxine) LSM CFB ([1]; Resmetirom 80 mg DB): -0.5 mg/L
TBG (thyroxine-treated) LSM CFB ([1]; Resmetirom 80 mg DB): 1.5 mg/L
TBG LSM CFB ([1]; Resmetirom 80 mg DB): 0.6 mg/L
TSH (not on thyroxine) LSM CFB ([1]; Resmetirom 80 mg DB): −0.3 mIU/L
TSH (thyroxine-treated) LSM CFB ([1]; Resmetirom 80 mg DB): −0.9 mIU/L
TSH LSM CFB ([1]; Resmetirom 80 mg DB): −0.4 mIU/L
rT3 (not on thyroxine) LSM CFB ([1]; Resmetirom 80 mg DB): -2.5 ng/dL
rT3 (thyroxine-treated) LSM CFB ([1]; Resmetirom 80 mg DB): -3.8 ng/dL
rT3 LSM CFB ([1]; Resmetirom 80 mg DB): -2.7 ng/dL
FT3 (not on thyroxine) LSM Difference [1, 4]: 0.0 ng/L
FT3 (thyroxine-treated) LSM Difference [1, 4]: -0.0 ng/L
FT3/rT3 (not on thyroxine) LSM Difference [1, 4]: 0.05
FT3/rT3 (thyroxine-treated) LSM Difference [1, 4]: 0.04
FT3/rT3 LSM Difference [1, 4]: 0.05
FT3 LSM Difference [1, 4]: 0.0 ng/L
FT4 (not on thyroxine) LSM Difference in % CFB [1, 4]: −15.4%
FT4 (not on thyroxine) LSM Difference in CFB [1, 4]: -0.2 ng/dL
FT4 (thyroxine-treated) LSM Difference in % CFB [1, 4]: −23.0%
FT4 (thyroxine-treated) LSM Difference in CFB [1, 4]: -0.3 ng/dL
FT4 LSM Difference in % CFB [1, 4]: −16.1%
FT4 LSM Difference in CFB [1, 4]: -0.2 ng/dL
TBG (not on thyroxine) LSM Difference [1, 4]: -0.3 mg/L
TBG (thyroxine-treated) LSM Difference [1, 4]: -2.4 mg/L
TBG LSM Difference [1, 4]: -0.5 mg/L
TSH (not on thyroxine) LSM Difference [1, 4]: −0.1 mIU/L
TSH (thyroxine-treated) LSM Difference [1, 4]: 0.0 mIU/L
TSH LSM Difference [1, 4]: −0.1 mIU/L
rT3 (not on thyroxine) LSM Difference [1, 4]: -3.8 ng/dL
rT3 (thyroxine-treated) LSM Difference [1, 4]: -5.5 ng/dL
rT3 LSM Difference [1, 4]: -3.9 ng/dL
FT3 (not on thyroxine) LSM CFB ([1]; Resmetirom 100 mg DB): -0.1 ng/L
FT3 (thyroxine-treated) LSM CFB ([1]; Resmetirom 100 mg DB): -0.0 ng/L
FT3/rT3 (not on thyroxine) LSM CFB ([1]; Resmetirom 100 mg DB): 0.04
FT3/rT3 (thyroxine-treated) LSM CFB ([1]; Resmetirom 100 mg DB): 0.04
FT3/rT3 LSM CFB ([1]; Resmetirom 100 mg DB): 0.04
FT3 LSM CFB ([1]; Resmetirom 100 mg DB): -0.1 ng/L
FT4 (not on thyroxine) LSM % CFB ([1]; Resmetirom 100 mg DB): −14.3%
FT4 (not on thyroxine) LSM CFB ([1]; Resmetirom 100 mg DB): -0.2 ng/dL
FT4 (thyroxine-treated) LSM % CFB ([1]; Resmetirom 100 mg DB): −19.2%
FT4 (thyroxine-treated) LSM CFB ([1]; Resmetirom 100 mg DB): -0.2 ng/dL
FT4 LSM % CFB ([1]; Resmetirom 100 mg DB): −14.9%
FT4 LSM CFB ([1]; Resmetirom 100 mg DB): -0.2 ng/dL
TBG (not on thyroxine) LSM CFB ([1]; Resmetirom 100 mg DB): 1.4 mg/L
TBG (thyroxine-treated) LSM CFB ([1]; Resmetirom 100 mg DB): -0.2 mg/L
TBG LSM CFB ([1]; Resmetirom 100 mg DB): 1.1 mg/L
TSH (not on thyroxine) LSM CFB ([1]; Resmetirom 100 mg DB): −0.3 mIU/L
TSH (thyroxine-treated) LSM CFB ([1]; Resmetirom 100 mg DB): −0.6 mIU/L
TSH LSM CFB ([1]; Resmetirom 100 mg DB): −0.4 mIU/L
rT3 (not on thyroxine) LSM CFB ([1]; Resmetirom 100 mg DB): -2.9 ng/dL
rT3 (thyroxine-treated) LSM CFB ([1]; Resmetirom 100 mg DB): -4.9 ng/dL
rT3 LSM CFB ([1]; Resmetirom 100 mg DB): -3.2 ng/dL
FT3 (not on thyroxine) LSM CFB ([1]; Resmetirom 100 mg OL): -0.1 ng/L
FT3 (thyroxine-treated) LSM CFB ([1]; Resmetirom 100 mg OL): -0.1 ng/L
FT3/rT3 (not on thyroxine) LSM CFB ([1]; Resmetirom 100 mg OL): 0.05
FT3/rT3 (thyroxine-treated) LSM CFB ([1]; Resmetirom 100 mg OL): 0.03
FT3/rT3 LSM CFB ([1]; Resmetirom 100 mg OL): 0.04
FT3 LSM CFB ([1]; Resmetirom 100 mg OL): -0.2 ng/L
FT4 (not on thyroxine) LSM % CFB ([1]; Resmetirom 100 mg OL): −18.9%
FT4 (not on thyroxine) LSM CFB ([1]; Resmetirom 100 mg OL): -0.2 ng/dL
FT4 (thyroxine-treated) LSM % CFB ([1]; Resmetirom 100 mg OL): −14.8%
FT4 (thyroxine-treated) LSM CFB ([1]; Resmetirom 100 mg OL): -0.2 ng/dL
FT4 LSM % CFB ([1]; Resmetirom 100 mg OL): −16.1%
FT4 LSM CFB ([1]; Resmetirom 100 mg OL): -0.2 ng/dL
TBG (not on thyroxine) LSM CFB ([1]; Resmetirom 100 mg OL): 0.7 mg/L
TBG (thyroxine-treated) LSM CFB ([1]; Resmetirom 100 mg OL): -1.0 mg/L
TBG LSM CFB ([1]; Resmetirom 100 mg OL): 0.1 mg/L
TSH (not on thyroxine) LSM CFB ([1]; Resmetirom 100 mg OL): −0.2 mIU/L
TSH (thyroxine-treated) LSM CFB ([1]; Resmetirom 100 mg OL): 0.4 mIU/L
TSH LSM CFB ([1]; Resmetirom 100 mg OL): 0.2 mIU/L
rT3 (not on thyroxine) LSM CFB ([1]; Resmetirom 100 mg OL): -3.5 ng/dL
rT3 (thyroxine-treated) LSM CFB ([1]; Resmetirom 100 mg OL): -3.9 ng/dL
rT3 LSM CFB ([1]; Resmetirom 100 mg OL): -3.3 ng/dL
effect on active hormone free triiodothyronine (FT3) ([1]; resmetirom arms): No effects
effect on thyroid-stimulating hormone (TSH) ([1]; resmetirom arms): No effects
prohormone FT4 levels, change from baseline ([1]; resmetirom arms): Minimal reductions from baseline
NASH resolution / fibrosis improvement, 100 mg compared with 80 mg ([2]; 100 mg resmetirom group, except in patients ≥65 years): generally outperformed the 80 mg group
patients achieving NASH resolution or fibrosis improvement compared with placebo ([2]; Week 52 biopsy, across subgroups): significantly more resmetirom-treated patients achieving either NASH resolution or fibrosis improvement
response at both endpoints (NASH resolution, fibrosis improvement) by subgroup ([2]; patients with ≥30% liver fat reduction or SHBG increase ≥120%): greater response

Source: patent US20240423992A1, “BIOMARKERS FOR TREATING LIVER DISORDERS WITH THR-B AGONISTS AND RELATED USES” (Madrigal Pharmaceuticals, Inc., priority 2023, published 2024)
